Assay results as given in PubChem BioAssay AID248 (DTP/NCI, 2004).
Where “and” joins values, the source holds several entries; their conditions need not be identical. Equal values may be shown once. Toxic doses and inconclusive results are not listed. No stated cut-off is given here; in the data, active means T/C of 150% or more; inactive means T/C below 125%.

Tested on: L1210 leukemia ip in BDF1 mice, survival T/C
Assay: NCI In Vivo Anticancer Drug Screen. Data for tumor model L1210 Leukemia (intraperitoneal) in B6D2F1 (BDF1) mice
Settings: endpoint: mean survival time, higher = longer survival
In short: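 Read-out is survival time, reported as the treated-group measurement over the vehicle-control measurement.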

[1] = dose: 200.0 mg/kg/injection, schedule: Q01DX001 (ip), vehicle: carboxymethylcellulose (CMC)
[2] = dose: 50.0 mg/kg/injection, schedule: Q01DX009 (ip), vehicle: saline
[3] = dose: 100.0 mg/kg/injection, schedule: Q01DX009 (ip), vehicle: saline
[4] = dose: 100.0 mg/kg/injection, schedule: Q04DX002 (ip), vehicle: saline
[5] = dose: 100.0 mg/kg/injection, schedule: Q04DX003 (ip), vehicle: saline
[6] = dose: 200.0 mg/kg/injection, schedule: Q01DX009 (ip), vehicle: saline
[7] = dose: 200.0 mg/kg/injection, schedule: Q04DX002 (ip), vehicle: saline
[8] = dose: 200.0 mg/kg/injection, schedule: Q04DX003 (ip), vehicle: saline
[9] = dose: 400.0 mg/kg/injection, schedule: Q04DX002 (ip), vehicle: saline
[10] = dose: 400.0 mg/kg/injection, schedule: Q04DX003 (ip), vehicle: saline
[11] = dose: 100.0 mg/kg/injection, schedule: Q01DX009 (ip), vehicle: saline with Tween-80
[12] = dose: 200.0 mg/kg/injection, schedule: Q01DX009 (ip), vehicle: saline with Tween-80
[13] = dose: 400.0 mg/kg/injection, schedule: Q01DX009 (ip), vehicle: saline with Tween-80
[14] = dose: 25.0 mg/kg/injection, schedule: Q04DX003 (ip), vehicle: saline with Tween-80
[15] = dose: 50.0 mg/kg/injection, schedule: Q04DX003 (ip), vehicle: saline with Tween-80
[16] = dose: 100.0 mg/kg/injection, schedule: Q04DX003 (ip), vehicle: saline with Tween-80
[17] = dose: 100.0 mg/kg/injection, schedule: Q01DX001 (ip), vehicle: saline with Tween-80
[18] = dose: 200.0 mg/kg/injection, schedule: Q01DX001 (ip), vehicle: saline with Tween-80
[19] = dose: 100.0 mg/kg/injection, schedule: Q04DX002 (ip), vehicle: saline with Tween-80
[20] = dose: 200.0 mg/kg/injection, schedule: Q04DX002 (ip), vehicle: saline with Tween-80
[21] = dose: 200.0 mg/kg/injection, schedule: Q04DX003 (ip), vehicle: saline with Tween-80
[22] = dose: 400.0 mg/kg/injection, schedule: Q04DX002 (ip), vehicle: saline with Tween-80
[23] = dose: 400.0 mg/kg/injection, schedule: Q04DX003 (ip), vehicle: saline with Tween-80
[24] = dose: 25.0 mg/kg/injection, schedule: Q01DX009 (ip), vehicle: saline with Tween-80
[25] = dose: 50.0 mg/kg/injection, schedule: Q01DX009 (ip), vehicle: saline with Tween-80
[26] = dose: 100.0 mg/kg/injection, schedule: Q04DX003 (ip), vehicle: Klucel (hydroxypropylcellulose) (HPC)
[27] = dose: 200.0 mg/kg/injection, schedule: Q04DX003 (ip), vehicle: Klucel (hydroxypropylcellulose) (HPC)

Measured: T/C

Cc1cc(C)c(C(=O)O)c(O)c1
inactive: [1] 93 % of control

CC1CNC(=O)O1 (configuration not stated)
inactive: dose: 25.0 mg/kg/injection, schedule: Q01DX009 (ip), vehicle: saline 97 % of control | [2] 97 % of control | dose: 50.0 mg/kg/injection, schedule: Q04DX003 (ip), vehicle: saline 106 % of control | [3] 98 % of control | [4] 100 % of control | [5] 106 % of control | [6] 95 % of control | [7] 91 % of control | [8] 101 % of control | dose: 400.0 mg/kg/injection, schedule: Q01DX009 (ip), vehicle: saline 95 % of control | [9] 91 % of control | [10] 100 % of control

COc1ccc(C(=O)CC(C#N)c2ccc(OC)c(OC)c2)cc1OC (configuration not stated)
inactive: [11] 100 % of control | [12] 96 % of control | [13] 100 % of control

O=C(CBr)c1ccc(/C=C/c2ccc(Cl)cc2)cc1
inactive: [11] 94 % of control

C#CCCCN1CCC2(CC1)C(=O)N(C(=O)N(C)C)CN2c1ccccc1
inactive: [14] 105 % of control | [15] 103 % of control | [16] 88 % of control and 92 % of control

CCOCc1cnc(C)nc1N
inactive: [17] 94 % of control | [18] 94 % of control

C/C=C\CCCCCCC
inactive: dose: 50.0 mg/kg/injection, schedule: Q01DX001 (ip), vehicle: carboxymethylcellulose (CMC) 90 % of control | dose: 100.0 mg/kg/injection, schedule: Q01DX001 (ip), vehicle: carboxymethylcellulose (CMC) 90 % of control | [1] 95 % of control | dose: 400.0 mg/kg/injection, schedule: Q01DX001 (ip), vehicle: carboxymethylcellulose (CMC) 90 % of control

CCOc1ccccc1NC(=S)NC(=O)CCc1ccccc1
inactive: [11] 102 % of control and 104 % of control | [19] 104 % of control | [16] 105 % of control | [12] 93 % of control and 108 % of control | [20] 98 % of control | [21] 97 % of control | [13] 97 % of control and 89 % of control | [22] 91 % of control | [23] 89 % of control

CC1(c2cccs2)NC(=O)N(Cl)C1=O (configuration not stated)
inactive: [24] 93 % of control | [14] 99 % of control | [25] 96 % of control | [15] 99 % of control | [11] 105 % of control | [16] 100 % of control and 91 % of control | [12] 94 % of control

Cc1ccc(C)c(NC(=O)Nc2nccs2)c1
inactive: [17] 96 % of control | [11] 96 % of control and 97 % of control | [19] 96 % of control and 90 % of control | [16] 95 % of control | [18] 104 % of control | [12] 92 % of control and 93 % of control | [20] 93 % of control and 97 % of control | [21] 86 % of control | dose: 400.0 mg/kg/injection, schedule: Q01DX001 (ip), vehicle: saline with Tween-80 96 % of control | [13] 94 % of control and 96 % of control | [22] 100 % of control and 110 % of control | [23] 88 % of control

O=C(CBr)c1cccc2c1ccc1ccccc12
inactive: dose: 1.56 mg/kg/injection, schedule: Q01DX009 (ip), vehicle: other 100 % of control | dose: 3.13 mg/kg/injection, schedule: Q01DX009 (ip), vehicle: other 95 % of control | dose: 6.25 mg/kg/injection, schedule: Q01DX009 (ip), vehicle: other 95 % of control and 98 % of control | dose: 12.5 mg/kg/injection, schedule: Q01DX005 (ip), vehicle: other 101 % of control | dose: 12.5 mg/kg/injection, schedule: Q04DX002 (ip), vehicle: other 102 % of control | dose: 25.0 mg/kg/injection, schedule: Q01DX005 (ip), vehicle: other 104 % of control | dose: 25.0 mg/kg/injection, schedule: Q04DX002 (ip), vehicle: other 91 % of control | dose: 50.0 mg/kg/injection, schedule: Q04DX002 (ip), vehicle: other 102 % of control

O=C1c2ccccc2C(c2ccccc2)(N(CCCl)CCCl)N1C1CCCCC1 (configuration not stated)
inactive: [26] 103 % of control | [27] 102 % of control | dose: 400.0 mg/kg/injection, schedule: Q04DX003 (ip), vehicle: Klucel (hydroxypropylcellulose) (HPC) 97 % of control

NC(N)=N/N=C(/C=N/N=C(N)N)C(O)C(O)CO (configuration not stated)
inactive: dose: 15.0 mg/kg/injection, schedule: Q01DX Z (ip), vehicle: carboxymethylcellulose (CMC) 101 % of control | dose: 30.0 mg/kg/injection, schedule: Q01DX Z (ip), vehicle: carboxymethylcellulose (CMC) 98 % of control | [2] 98 % of control | dose: 60.0 mg/kg/injection, schedule: Q01DX Z (ip), vehicle: carboxymethylcellulose (CMC) 104 % of control | [3] 98 % of control | [5] 102 % of control | dose: 120.0 mg/kg/injection, schedule: Q01DX Z (ip), vehicle: carboxymethylcellulose (CMC) 101 % of control | [6] 95 % of control | [8] 94 % of control | [10] 100 % of control

ClCCCOC1CCCCO1 (configuration not stated)
inactive: [26] 89 % of control | [16] 107 % of control | [27] 95 % of control | [21] 96 % of control | [23] 96 % of control

CCOC(=O)c1[nH]c(=S)n(-c2ccccc2)c1C(=O)OCC
inactive: dose: 100.0 mg/kg/injection, schedule: Q01DX001 (ip), vehicle: other 97 % of control | dose: 100.0 mg/kg/injection, schedule: Q01DX009 (ip), vehicle: other 94 % of control and 95 % of control | dose: 100.0 mg/kg/injection, schedule: Q04DX002 (ip), vehicle: other 93 % of control and 87 % of control | dose: 200.0 mg/kg/injection, schedule: Q01DX001 (ip), vehicle: other 108 % of control | dose: 200.0 mg/kg/injection, schedule: Q01DX009 (ip), vehicle: other 94 % of control and 115 % of control | dose: 200.0 mg/kg/injection, schedule: Q04DX002 (ip), vehicle: other 96 % of control and 97 % of control | dose: 400.0 mg/kg/injection, schedule: Q01DX001 (ip), vehicle: other 103 % of control | dose: 400.0 mg/kg/injection, schedule: Q01DX009 (ip), vehicle: other 112 % of control and 90 % of control | dose: 400.0 mg/kg/injection, schedule: Q04DX002 (ip), vehicle: other 93 % of control and 114 % of control

COC(=O)CC(C(=O)OC)N1CC1 (configuration not stated)
inactive: dose: 75.0 mg/kg/injection, schedule: Q01DX001 (ip), vehicle: carboxymethylcellulose (CMC) 101 % of control

CN(CCN(C)C(=S)S)C(=S)S
inactive: dose: 100.0 mg/kg/injection, schedule: Q01DX002 (ip), vehicle: saline 99 % of control | dose: 200.0 mg/kg/injection, schedule: Q01DX002 (ip), vehicle: saline 99 % of control | dose: 400.0 mg/kg/injection, schedule: Q01DX002 (ip), vehicle: saline 105 % of control

CC(C)=CCC1=C(O)C2=C(CCCC2)C(=O)C1=O
inactive: dose: 100.0 mg/kg/injection, schedule: Q01DX001 (ip), vehicle: water 102 % of control | dose: 200.0 mg/kg/injection, schedule: Q01DX001 (ip), vehicle: water 106 % of control | dose: 400.0 mg/kg/injection, schedule: Q01DX001 (ip), vehicle: water 93 % of control

CC(=O)OC1CC2CCC3C4CC=C(C(C)=O)C4(C)CCC3C2(C)CC1OC(C)=O (configuration not stated)
inactive: dose: 75.0 mg/kg/injection, schedule: Q04DX003 (ip), vehicle: other 97 % of control | dose: 150.0 mg/kg/injection, schedule: Q04DX003 (ip), vehicle: other 97 % of control | dose: 300.0 mg/kg/injection, schedule: Q04DX003 (ip), vehicle: other 94 % of control

COc1ccc2ncccc2c1
inactive: [4] 111 % of control | [7] 101 % of control | [9] 104 % of control

CC(=O)OCc1ccc(Cl)cc1Cl
inactive: [16] 97 % of control | [21] 97 % of control | [23] 101 % of control

CC(=O)NC(CSCc1c2ccccc2c(C)c2ccccc12)C(=O)O (configuration not stated)
inactive: [24] 97 % of control | [25] 101 % of control | [11] 97 % of control and 92 % of control | [16] 94 % of control | [12] 88 % of control | [21] 96 % of control | [23] 96 % of control
